According to patent publication US20020032187A1, “Method for stimulating bone formation” (SmithKline Beecham Corporation, priority 1996, published 2002):
Where two headings read alike, the source gives them in different places. No end group written: not given here.

Assays:
[1] = test system: ROS 17/2.8 osteoblasts; conditions: for increase over the basal level of osteocalcin: 48 hr incubation, Vitamin D3 at 10 nM, internal controls
Protocol: Cell culture: ROS 17/2.8 osteoblasts were routinely cultured in Ham's F-12 medium containing 5% FBS, 25 rmM HEPES (pH 7.4), 1.1 mM CaCl2, penicillin (10 U/ml) and streptomycin (10 ug/ml). The cells were subcultured twice a week using 0.04% trypsin containing 5 mM EDTA to detach the cells.
For the assay, 30,000 cells were plated per well in 24-well multidishes in 0.5 ml of HAM's F-12 medium containing 1% FBS and allowed to adhere for 3-4 hr at 37° C. in a humidified incubator with 5% CO2. Increasing concentrations of test compounds ([…]) were then added to the wells (duplicate cultures per concentration tested) and the incubation continued for an additional 48 hr. At the end of the incubation, cultures supernatants were removed and assayed for osteocalcin levels using a rat RIA as per the manufacturer's instructions. The lower limit of detection in this assay was 0.3 ng/ml. In every experiment, Vitamin D3 (10 nM) and the peptide cyclo[Arg-Gly-Asp-D-Phe-Val] were tested as an internal controls. […] Activity for each compound was expressed as the EC50 from the dose-response curve.

[2] = test system: MC3T3-E1 osteoblasts; experiment: Mineralization of MC3T3 osteoblasts; assay type: cell-based, murine; conditions: 25 uM
Protocol: Mineralization of MC3T3 osteoblasts
To characterize the temporal sequence of osteoblast differentiation, 30,000 cells were plated/well in 24-well multidishes and grown for periods ranging from 3-26 days in a-MEM medium (GIBCO) containing 10% fetal bovine serum (V/V), penicillin (100 U/ml) and streptomycin (100 ug/ml), with or without supplementation with 5 mM β-glycerophosphate and 100 uM ascorbic acid in the presence or absence of RGD compounds.
Mineralization of cells was assessed by calcium isotope accumulation. Cells were incubated for 48 h in medium containing 0.5 uCi/mi of ^45CaCl2 at various time points after seeding. Subsequently, the monolayers were washed twice with PBS using 1 ml/wash. Cells were harvested and digested in 0.1 N NaOH and aliquots were counted by liquid scintillation counting using a Beckman 5500 scintillation counter.
Calcified nodules in actively mineralizing cultures were visualized by staining cell monolayers with Alizarin-Red-S (Sigma Chemical Co, St Louis, Mo.). Cell cultures were washed twice with PBS, fixed for 10 min in 50 percent ethanol, rehydrated with 1 ml of distilled water for 5 min and then stained for 1-3 min with 200 uL of 1 percent Alizarin Red S (aqueous). The monolayers were then washed extensively and very carefully using 1 ml H2O per wash. Calcified nodules which appeared a bright red color were identified by light microscopy.
To monitor the differentiation of cells to the mature osteoblast type, alkaline phosphatase activity was determined in cell lysates using the colorimetric assay. Cells were washed twice with PBS using 1 ml/wash. Subsequently, the monolayers were transferred to ice and cells lysed in 0.2 ml of 0.1% TX-100. […] The reactions were stopped with the addition of 100 uL of ice cold 0.25 N NaOH to each reaction and absorbance was read at 410 nm. […] Alkaline phosphatase activity was calculated as umol of substrate (p-nitrophenol) released/mg protein/min.
Osteocalcin levels in the supernatants were determined at various time points during the assay using a mouse RIA as per the manufacturers instructions. […]

Compound | stimulates release of osteocalcin (in words) [1] | increase over the basal level of osteocalcin [1] | further results
CN1Cc2cc(C(=O)NCc3nc4ccccc4[nH]3)ccc2NC(CC(=O)O)C1=O (racemic) [7-[(((2-benzimidazolyl)methyl)amino)carbonyl]-2,3,4,5-tetrahydro4-methyl-3-oxo-1H-1,4-benzodiazepine-2-acetic acid] | osteocalcin-releasing | – | –
C=C1CC[C@H](O)C/C1=C/C=C1\CCC[C@]2(C)[C@@H]([C@H](C)CCCC(C)C)CC[C@@H]12 [Vitamin D3] | – | two to three fold increase | –
CC(C)[C@@H]1NC(=O)[C@@H](Cc2ccccc2)NC(=O)[C@H](CC(=O)O)NC(=O)CNC(=O)[C@H](CCCNC(=N)N)NC1=O [cyclo[Arg-Gly-Asp-D-Phe-Val]] | stimulate the release of osteocalcin | two to three fold increase | EC50 ([1]; 48 h): 740 nM; stimulates release of osteocalcin (in words) ([1]; listed as cyclo(Arg-Gly-Asp-D-Phe-Val)): osteocalcin-releasing; 45Ca uptake [2]: increased calcium uptake; alkaline phosphatase activity [2]: enhanced alkaline phosphatase activity; calcification nodules upon Alizarin-Red staining [2]: showed calcification nodules upon Alzirin staining
Benzyl-(N-methyl)Arg-Gly-Asp-NH-(2 or 4 chloro)Ph | stimulate the release of osteocalcin | – | –
Benzyl-(N-methyl)Arg-Gly-Asp-NHPh | stimulate the release of osteocalcin | – | –
Gly-Arc-Gly-Asp-Ser-OH (GRGDS-OH) | stimulate the release of osteocalcin | – | –
